The record followed here is patent publication US20080269202A1, “Novel 2,3-benzodiazepine derivatives and their use as antipsychotic agents” (Teva Pharmaceutical Industries Ltd., priority 2007, published 2008).

Like-named read-outs stand apart in the source and are kept apart here. Bounds are passed on as bounds.

The target of data set [1] is T1, adrenergic receptors.
T1 construct: other: rat cerebral cortical membranes, ligand [3H]yohimbine
In words: in vitro binding profile to adrenergic receptors (Table 3). Particulars: rat cerebral cortical membranes, ligand [3H]yohimbine; read-out: α2 binding. The source says: (§1) The new 2,3-benzodiazepine atypical antipsychotic agents of formula (I) of the present invention influence dopaminergic neurotransmission by a unique indirect fashion, differently from both the first and second generation antipsychotics. The in vitro binding profile of these compounds (Table 3) differs from that of the first generation antipsychotics which bind to dopaminergic receptors and second generation antipsychotics, representatives of which show affinity for dopaminergic, serotonergic, or adrenergic receptors.

Data set [2] addresses T2, adrenergic receptors.
T2 construct: other: rat cerebral cortical membranes, ligand [3H]prazosin
Described as above. The conditions noted are these: rat cerebral cortical membranes, ligand [3H]prazosin; read-out: α1 binding.
Excerpt: as §1

In data set [3] the test system is PCP-induced hypermotility. In words: PCP-induced hypermotility (motor activity meter) in mice. It is filed as in vivo. Particulars: Mus musculus, read-out: PCP-hypermotility ED50 mg/kg po. The text has this: (§2) Alterations in the mesocortical dopaminergic tract are thought to be responsible for the negative symptoms of schizophrenia (flattening of affect, poverty of speech, lack of volition and drive, loss of feeling, social withdrawal and decreased spontaneous movement). The best animal model of these symptoms is the behavioral changes induced by PCP (phencyclidine). The PCP-induced stereotypy and hypermotility was investigated in mice according to Ljungberg and Ungerstedt (Ljungberg, T., Ungerstedt, U. Pharmacol. Biochem. Behav., 1985, 23, 479,) and Jawitt (Jawitt, D. C. Amer. J. Psychiatry, 1991, 145, 1301). The stereotypy experiments were carried out in male CD1 mice weighing 20-25 g. The animals were starved for 16 hours before treatment without limitation of water availability. In the stereotypy studies, 30 min before treatment, mice were individually placed into small, transparent acrylic cages for habituation. Test substances were administered orally in a volume of 0.1 ml/10 g. 30 min later mice were treated with PCP with an intraperitoneal dose of 7 mg/kg. Stereotyped behavior was observed every 5th min for 60 min and scored from 0 to 4. The scores were summed individually, averaged and compared to the control group.
The motor activity was measured in a 4-channel activity meter. The apparatus consisted of acrylic cages (40×40×32 cm) equipped with 16 pairs of infrared photocells. The photocells' beam, when broken, signaled a count, which was then recorded by a computer. A 5 mg/kg intraperitoneal dose of PCP was administered 5 min before the experiment. This dose of PCP induces 110-120% increase of the spontaneous motor activity. Test substances were administered orally 15 min before experiment, and mice were investigated individually in the experimental cages for 60 min. 10 mice/group were used. The total counts for each experimental group were compared to the vehicle treated control group.
(§3) In both studies the ED50 values were calculated by the Litchfield-Wilcoxon's method (J. Pharmacol. Exp. Ther. 1949, 96, 49).

The next data set relates to Adenosine transporter. In words: in vitro inhibition, adenosine transporter. Format: binding. Particulars: conc: 10 μM.
A further data set has as its system PCP-induced stereotypy. As to the kind of experiment: PCP-induced stereotypy in mice. The conditions noted are these: Mus musculus, read-out: PCP-stereotypy ED50 mg/kg po. It is filed as in vivo, CD1 mice.
Excerpt: as §2, §3

In data set [4] the target is T3, serotonergic receptors (Rattus norvegicus, UniProt P14842).
T3 construct: other: rat cerebral cortical membranes, ligand [3H]ketanserin
T3 sequence (P14842 whole entry): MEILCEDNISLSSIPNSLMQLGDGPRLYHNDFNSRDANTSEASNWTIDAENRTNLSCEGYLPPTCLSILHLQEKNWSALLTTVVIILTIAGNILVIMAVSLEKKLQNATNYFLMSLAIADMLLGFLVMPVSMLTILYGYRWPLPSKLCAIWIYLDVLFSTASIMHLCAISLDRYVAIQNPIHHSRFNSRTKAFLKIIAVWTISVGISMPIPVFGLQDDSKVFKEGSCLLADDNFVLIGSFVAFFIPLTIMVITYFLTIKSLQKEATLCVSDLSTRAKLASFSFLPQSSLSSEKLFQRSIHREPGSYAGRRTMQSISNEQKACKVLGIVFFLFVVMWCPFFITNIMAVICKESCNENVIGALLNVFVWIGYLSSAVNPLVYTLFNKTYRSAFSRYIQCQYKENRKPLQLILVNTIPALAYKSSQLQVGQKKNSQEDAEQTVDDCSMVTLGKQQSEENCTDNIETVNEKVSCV
In words: in vitro binding profile to serotonergic receptors (Table 3). Particulars: rat cerebral cortical membranes, ligand [3H]ketanserin; read-out: 5HT2A binding.
Excerpt: as §1

The target in data set [5] is T4, serotonergic receptors (Rattus norvegicus, UniProt P19327).
T4 construct: other: rat hippocampal membranes, ligand [3H]-8-OH-DPAT
T4 sequence (P19327 1-422): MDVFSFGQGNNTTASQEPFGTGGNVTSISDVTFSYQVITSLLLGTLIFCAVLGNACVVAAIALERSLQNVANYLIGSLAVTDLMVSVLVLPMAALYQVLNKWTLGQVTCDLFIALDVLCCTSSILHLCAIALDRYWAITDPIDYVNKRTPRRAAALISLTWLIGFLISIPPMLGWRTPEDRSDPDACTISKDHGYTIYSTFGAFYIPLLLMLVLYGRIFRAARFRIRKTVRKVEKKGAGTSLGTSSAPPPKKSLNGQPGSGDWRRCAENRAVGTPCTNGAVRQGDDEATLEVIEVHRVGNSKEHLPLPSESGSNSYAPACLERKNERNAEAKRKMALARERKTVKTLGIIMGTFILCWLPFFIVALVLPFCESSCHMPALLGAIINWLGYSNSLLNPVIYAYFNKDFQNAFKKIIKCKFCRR
The description is as above. Particulars: rat hippocampal membranes, ligand [3H]-8-OH-DPAT; read-out: 5HT1A binding.
Excerpt: as §1

A further data set relates to catalepsy. In words: catalepsy test in rats. Format: in vivo, CDBR rats. Particulars: sum of 8 readings over 4 hours. The text has this:
In order to investigate the potential side effect profile, the catalepsy test in rats has been carried out according to Costall and Naylor (Costall, B., Naylor, R. J. Arzneimittelforschung/Drug Res., 1973, 23, 674).
Catalepsy is defined as a failure to correct an externally imposed, unusual posture over a prolonged time. Neuroleptics which have direct inhibitory action on the nigrostriatal dopamine system induce catalepsy. It may be reflected by the Parkinson-like extrapyramidal symptoms seen clinically with administration of classical antipsychotics. The experiments were carried out in male CDBR rats weighing 300-400 g. The volume of administration was 0.25 ml/100 g body weight. The animals were starved for 16 hours before treatment, water was delivered ad libitum. After intraperitoneal administration of the test substances, the forepaws of the rats were placed on a horizontal stainless steel bar elevated to 10 cm high, while the hind paws remained on a metal plate. The semi-automatic 5-channel catalepsy meter measured the time spent in this unusual posture by an electronic stop-clock. The catalepsy time was scored from 0 to 5 according to the time spent in the unusual posture. […] Means of groups were calculated.

Setting [6] is: mice, po. 15 min before experiment, PCP 5 mg/kg ip.
Setting [7] is: mice, po. 30 min before PCP 7 mg/kg ip.

As to `CNC(=O)N1N=C(c2ccc(N)cc2)c2cc(OC)c(OC)cc2C[C@H]1C` [Example 121], the Ki at adrenergic receptors [1], at adrenergic receptors [2], on serotonergic receptors [4] and on serotonergic receptors [5] was more than 10 µM each time. In addition, the results for the ED50 (in data set [3]; in the data set with PCP-induced stereotypy) were 0.87 mg/kg and 1.56 mg/kg, respectively. Moreover, the “Inhibition in %, Adenosine transporter” value with Adenosine transporter is listed as 87%. The Catalapsy scores in the data set on catalepsy (dose 10 mg/kg ip) is on record as 10:0.
Take `COc1cc2c(cc1OC)C(c1ccc(N)c(C)c1)=NN(c1nncs1)[C@H](C)C2` [Example 110]: the Ki at adrenergic receptors [1], at adrenergic receptors [2], at serotonergic receptors [4] and on serotonergic receptors [5] was more than 10 µM in each case. Further, the ED50 in data set [3] (setting [6]) came to 1.4 mg/kg; with PCP-induced stereotypy (setting [7]), 2.38 mg/kg. Besides, in the data set with Adenosine transporter, the “Inhibition in %, Adenosine transporter” value was 94%. Moreover, the Catalapsy scores with catalepsy (dose 10 mg/kg ip) is reported as 10:0.375.
In the case of `COc1cc2c(cc1OC)C(c1ccc(N)c(C)c1)=NN(c1ncon1)[C@H](C)C2` [Example 104], the Ki on adrenergic receptors [1], on adrenergic receptors [2], at serotonergic receptors [4] and on serotonergic receptors [5] was more than 10 µM in each case. The ED50 in data set [3] (setting [6]) stood at 0.73 mg/kg; in the data set on PCP-induced stereotypy (setting [7]), 1.12 mg/kg. The “Inhibition in %, Adenosine transporter” value with Adenosine transporter is given as 96%. Further, the Catalapsy scores with catalepsy (dose 40 mg/kg ip) was 40:0.
Take `CNC(=O)N1N=C(c2ccc(N)c(C)c2)c2cc(OC)c(OC)cc2C[C@H]1C` [Example 123]: the Ki on adrenergic receptors [1], at adrenergic receptors [2], on serotonergic receptors [4] and at serotonergic receptors [5] was more than 10 µM in each case. Besides, the results for the ED50 (in data set [3]; in the data set with PCP-induced stereotypy) were 0.62 mg/kg and 1.07 mg/kg, respectively. Also, the “Inhibition in %, Adenosine transporter” value in the data set with Adenosine transporter came out at 90%. Also, the Catalapsy scores in the data set with catalepsy (dose 40 mg/kg ip) is given as 40:0.
